From patent publication EP4293019A1, “4-SUBSTITUTED (1H-BENZO[D]IMIDAZOL-2-YL)-1H-PYRAZOLES AS BUB1 INHIBITORS USEFUL FOR TREATING CANCERS” (Netherlands Translational Research Center Holding B.V., priority 2022, dated 2023)
Where a name gives a salt, the structure may show the parent alone.

Target: T1, hBUB1 (Homo sapiens, UniProt O43683)
T1 construct: purchased Carna Biosciences 05-187
Assay: hBUB1 kinase activity assay (biochemical fluorescence polarization assay, IMAP)
Conditions: BUB1/BUB3 3.26 nM, ATP 15 µM, BUB1/BUB3 substrate 75 nM, N=2, n=2; for IC50: read-out: hBUB1 pIC50 (converted)
Protocol: This protocol describes how the Kinase Activity Assay was performed to determine pIC50 values of compounds of general formula (I) against hBUB1.
Assays were performed in 384-well plates (Greiner, black, flat bottom, 781076) by sequential addition (final concentrations are indicated) of inhibitor (5 µL, 0.3 nM - 1 µM or 3 nM - 10 µM), BUB1/BUB3 (5 µL, 3.26 nM, Carna Biosciences (05-187), lot: 15CBS-0644 D), ATP (5 µL, 15 µM) and BUB1/BUB3 substrate (5 µL, 75 nM, Carna Biosciences (05-187MSSU)), all as 4x working solutions. The final concentration of DMSO was 1%. Assay reactions were stopped by addition of IMAP progressive binding reagent (20 µL, 1200x diluted, Molecular Devices (R8155), lot: 3117896). Each assay included the following controls: (i) a background control (treated with vehicle instead of inhibitor and BUB1/BUB3 substrate), (ii) MIN controls (treated with 5 µM BAY1816032 (MedChem Express) as inhibitor, used as 0% BUB1 activity) and (iii) MAX controls (treated with vehicle instead of inhibitor, used as 100% BUB1 activity). All inhibitors were tested in two separate assays and all inhibitor concentrations were tested in duplicate per assay (N=2, n=2).
For each assay, assay buffer (AB) was freshly prepared and consisted of 20 mM HEPES (prepared by diluting 1 M HEPES, pH 7.2), 5 mM MgCl2, 0.01% Tween-20 and 1 mM DTT. Stocks of inhibitors (in DMSO) were diluted in AB to obtain 4x working solutions (4% DMSO) and 5 µL was added to the assay plate. BUB1/BUB3 (3.26 µM (486 µg/mL) in storage buffer) was diluted in AB to obtain 13.0 nM of which 5 µL was added to all wells of the assay plate. The assay plate was centrifuged (1 min, 200 g) and incubated at RT for 30 min. ATP (4 mM in MilliQ) was diluted in AB to obtain 60 µM of which 5 µL was added to each well. BUB1/BUB3 substrate (1 mM) was diluted in 20 mM HEPES (prepared by diluting 1 M HEPES (pH 7.2) in MilliQ) to obtain 80 µM (this solution was freshly prepared every assay) and further diluted in AB to obtain 300 nM after which 5 µL was added to each well of the assay plate except for background control wells. The assay plate was centrifuged (1 min, 200 g) and incubated at RT in the dark for 180 min. IMAP progressive binding buffer A (5x) and IMAP progressive binding buffer B (5x) were mixed in a ratio to obtain 30% buffer A and 70% buffer B, which was subsequently diluted 5x in MilliQ. IMAP progressive binding reagent was diluted 600x in aforementioned mixture of buffer A and B (to obtain a 2x working solution) of which 20 µL was added to each well of the assay plate. The assay plate was centrifuged (1 min, 200 g) and incubated at RT in the dark for 90 min. Fluorescence polarization was measured on a CLARIOstar plate reader using the following settings: (i) optic settings → excitation = F: 482-16, dichroic = F: LP 504, emission = F: 530-40, (ii) optic = top optic, (iii) speed/precision = maximum precision, (iv) focus adjustment was performed for every assay and (v) gain adjustment was done by setting the target mP value to 35 mP for one of the MIN control wells. Data was normalized between MIN and MAX controls and data was plotted using GraphPad Prism 8.0 using "Nonlinear regression (curve fit)" and "log(inhibitor) vs. normalized response - Variable slope" to determine pIC50 values.
Inhibition is indicated as pIC50 ("-" = not measured). Compounds having an activity designated as "A" provided an pIC50 ≥ 7.0 (IC50 ≤100 nM); compounds having an activity designated as "B" provided an 6.3 ≤ pIC50 < 7.0 (100 nM<IC50 ≤ 500 nM); compounds having an activity designated as "C" provided an 6.0 ≤ pIC50 < 6.3 (500 nM < IC50 ≤ 1 µM); compounds having an activity designated as "D" provided an 6.0 < pIC50 ≤ 5.0 (1 µM < IC50 ≤ 10 µM); and compounds having an activity designated as "E" provided an pIC50 < 5.0 (IC50 >10 µM).

T1 sequence (O43683 whole entry): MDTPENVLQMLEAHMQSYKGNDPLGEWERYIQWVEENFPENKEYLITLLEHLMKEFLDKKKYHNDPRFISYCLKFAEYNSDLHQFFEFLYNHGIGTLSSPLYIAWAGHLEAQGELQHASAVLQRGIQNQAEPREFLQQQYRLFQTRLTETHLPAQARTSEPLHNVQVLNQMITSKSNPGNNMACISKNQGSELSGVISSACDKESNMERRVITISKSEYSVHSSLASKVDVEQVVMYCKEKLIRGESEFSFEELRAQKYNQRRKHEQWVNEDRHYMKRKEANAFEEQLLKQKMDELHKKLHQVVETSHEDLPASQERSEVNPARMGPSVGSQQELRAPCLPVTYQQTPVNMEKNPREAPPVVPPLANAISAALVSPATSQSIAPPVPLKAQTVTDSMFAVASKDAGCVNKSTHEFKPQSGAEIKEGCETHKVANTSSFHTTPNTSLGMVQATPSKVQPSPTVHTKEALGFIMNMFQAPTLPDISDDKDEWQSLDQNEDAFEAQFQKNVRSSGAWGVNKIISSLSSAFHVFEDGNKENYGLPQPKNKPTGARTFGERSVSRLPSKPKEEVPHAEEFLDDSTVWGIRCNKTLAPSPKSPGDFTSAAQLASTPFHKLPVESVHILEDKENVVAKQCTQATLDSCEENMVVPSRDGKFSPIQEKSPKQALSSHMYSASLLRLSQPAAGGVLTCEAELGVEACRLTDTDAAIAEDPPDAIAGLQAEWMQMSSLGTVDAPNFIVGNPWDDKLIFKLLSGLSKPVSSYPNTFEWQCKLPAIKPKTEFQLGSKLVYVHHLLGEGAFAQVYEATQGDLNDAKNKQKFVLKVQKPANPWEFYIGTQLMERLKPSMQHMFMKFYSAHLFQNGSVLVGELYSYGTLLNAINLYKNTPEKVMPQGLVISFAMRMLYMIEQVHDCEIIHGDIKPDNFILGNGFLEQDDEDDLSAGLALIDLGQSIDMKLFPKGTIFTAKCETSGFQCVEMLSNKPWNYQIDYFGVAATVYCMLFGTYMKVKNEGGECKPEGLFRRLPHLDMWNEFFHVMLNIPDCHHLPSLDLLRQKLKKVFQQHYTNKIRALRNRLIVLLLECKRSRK
T1 sequence (O43684 whole entry partner): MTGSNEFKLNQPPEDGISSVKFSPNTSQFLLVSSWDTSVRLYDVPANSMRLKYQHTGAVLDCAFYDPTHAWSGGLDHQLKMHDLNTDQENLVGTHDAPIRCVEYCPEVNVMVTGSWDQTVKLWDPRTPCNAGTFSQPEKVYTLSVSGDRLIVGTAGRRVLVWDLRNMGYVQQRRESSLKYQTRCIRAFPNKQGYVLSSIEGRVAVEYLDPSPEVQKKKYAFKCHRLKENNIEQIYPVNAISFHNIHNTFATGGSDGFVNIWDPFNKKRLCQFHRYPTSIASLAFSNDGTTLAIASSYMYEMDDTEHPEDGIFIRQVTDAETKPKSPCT

IC50 [nM]	SMILES	hBUB1 pIC50
501 to 1000	c1csc(-c2nccc(Nc3c[nH]nc3-c3nc4cc(CN5CCOCC5)ccc4[nH]3)n2)c1 [Compound 22, N-(3-(5-(morpholinomethyl)-1H-benzo[d]imidazol-2-yl)-1H-pyrazol-4-yl)-2-(thiophen-2-yl)pyrimidin-4-amine hydrochloride]	
	c1ccc2cc(-c3nccc(Nc4c[nH]nc4-c4nc5ccccc5[nH]4)n3)ccc2c1 [Compound 39, N-(3-(1H-Benzo[d]imidazol-2-yl)-1H-pyrazol-4-yl)-2-(naphthalen-2-yl)pyrimidin-4-amine]	D (6.0 < pIC50 ≤ 5.0 (1 µM < IC50 ≤ 10 µM))
	c1ccc2c(-c3nccc(Nc4c[nH]nc4-c4nc5ccccc5[nH]4)n3)cccc2c1 [Compound 36, N-(3-(1H-Benzo[d]imidazol-2-yl)-1H-pyrazol-4-yl)-2-(naphthalen-1-yl)pyrimidin-4-amine]	D (6.0 < pIC50 ≤ 5.0 (1 µM < IC50 ≤ 10 µM))
501 to 1000	Clc1cccc(Oc2nccc(Nc3c[nH]nc3-c3nc4cc(CN5CCOCC5)ccc4[nH]3)n2)c1 [Compound 49, 2-(3-Chlorophenoxy)-N-(3-(5-(morpholinomethyl)-1H-benzo[d]imidazol-2-yl)-1H-pyrazol-4-yl)pyrimidin-4-amine]	
100 to 501	Cc1cccc(-c2nccc(Nc3c[nH]nc3-c3nc4ccccc4[nH]3)n2)c1 [Compound 27, N-(3-(1H-Benzo[d]imidazol-2-yl)-1H-pyrazol-4-yl)-2-(m-tolyl)pyrimidin-4-amine]	
100 to 501	C#Cc1nccc(Nc2c[nH]nc2-c2nc3cc(CN4CCOCC4)ccc3[nH]2)n1 [Compound 15, 2-ethynyl-N-(3-(5-(morpholinomethyl)-1H-benzo[d]imidazol-2-yl)-1H-pyrazol-4-yl)pyrimidin-4-amine]	
501 to 1000	Clc1ccccc1-c1nccc(Nc2c[nH]nc2-c2nc3ccccc3[nH]2)n1 [Compound 25, N-(3-(1H-Benzo[d]imidazol-2-yl)-1H-pyrazol-4-yl)-2-(2-chlorophenyl)pyrimidin-4-amine]	
	c1ccc(-c2nccc(Nc3c[nH]nc3-c3nc4ccccc4[nH]3)n2)cc1 [Compound 23, N-(3-(1H-benzo[d]imidazol-2-yl)-1H-pyrazol-4-yl)-2-phenylpyrimidin-4-amine]	D (6.0 < pIC50 ≤ 5.0 (1 µM < IC50 ≤ 10 µM))
	c1ccc2[nH]c(-c3n[nH]cc3Nc3ccnc(-c4cccc5[nH]ncc45)n3)nc2c1 [Compound 38, N-(3-(1H-Benzo[d]imidazol-2-yl)-1H-pyrazol-4-yl)-2-(1H-indazol-4-yl)pyrimidin-4-amine]	D (6.0 < pIC50 ≤ 5.0 (1 µM < IC50 ≤ 10 µM))
501 to 1000	c1cnn(-c2nccc(Nc3c[nH]nc3-c3nc4cc(CN5CCOCC5)ccc4[nH]3)n2)c1 [Compound 20, N-(3-(5-(Morpholinomethyl)-1H-benzo[d]imidazol-2-yl)-1H-pyrazol-4-yl)-2-(1H-pyrazol-1-yl)pyrimidin-4-amine]	
501 to 1000	c1cc(Nc2c[nH]nc2-c2nc3cc(CN4CCOCC4)ccc3[nH]2)nc(-c2ccsc2)n1 [Compound 21, N-(3-(5-(morpholinomethyl)-1H-benzo[d]imidazol-2-yl)-1H-pyrazol-4-yl)-2-(thiophen-3-yl)pyrimidin-4-amine hydrochloride]	
501 to 1000	COc1cccc(-c2nccc(Nc3c[nH]nc3-c3nc4ccccc4[nH]3)n2)c1 [Compound 29, N-(3-(1H-Benzo[d]imidazol-2-yl)-1H-pyrazol-4-yl)-2-(3-methoxyphenyl)pyrimidin-4-amine]	
	COc1ccc(-c2nccc(Nc3c[nH]nc3-c3nc4ccccc4[nH]3)n2)cc1 [Compound 34, N-(3-(1H-Benzo[d]imidazol-2-yl)-1H-pyrazol-4-yl)-2-(4-methoxyphenyl)pyrimidin-4-amine]	D (6.0 < pIC50 ≤ 5.0 (1 µM < IC50 ≤ 10 µM))
100 to 501	Clc1cccc(-c2nccc(Nc3c[nH]nc3-c3nc4ccccc4[nH]3)n2)c1 [Compound 28, N-(3-(1H-Benzo[d]imidazol-2-yl)-1H-pyrazol-4-yl)-2-(3-chlorophenyl)pyrimidin-4-amine]	
	Clc1ccc(-c2nccc(Nc3c[nH]nc3-c3nc4ccccc4[nH]3)n2)cc1 [Compound 33, N-(3-(1H-Benzo[d]imidazol-2-yl)-1H-pyrazol-4-yl)-2-(4-chlorophenyl)pyrimidin-4-amine]	D (6.0 < pIC50 ≤ 5.0 (1 µM < IC50 ≤ 10 µM))
501 to 1000	Clc1ccccc1Oc1nccc(Nc2c[nH]nc2-c2nc3cc(CN4CCOCC4)ccc3[nH]2)n1 [Compound 48, 2-(2-Chlorophenoxy)-N-(3-(5-(morpholinomethyl)-1H-benzo[d]imidazol-2-yl)-1H-pyrazol-4-yl)pyrimidin-4-amine]	
	Cc1ccccc1-c1nccc(Nc2c[nH]nc2-c2nc3ccccc3[nH]2)n1 [Compound 24, N-(3-(1H-benzo[d]imidazol-2-yl)-1H-pyrazol-4-yl)-2-(o-tolyl)pyrimidin-4-amine]	D (6.0 < pIC50 ≤ 5.0 (1 µM < IC50 ≤ 10 µM))
	Cc1ccc(-c2nccc(Nc3c[nH]nc3-c3nc4ccccc4[nH]3)n2)cc1 [Compound 32, N-(3-(1H-Benzo[d]imidazol-2-yl)-1H-pyrazol-4-yl)-2-(p-tolyl)pyrimidin-4-amine]	D (6.0 < pIC50 ≤ 5.0 (1 µM < IC50 ≤ 10 µM))
501 to 1000	c1ccc(CCOc2nccc(Nc3c[nH]nc3-c3nc4cc(CN5CCOCC5)ccc4[nH]3)n2)cc1 [Compound 19, N-(3-(5-(morpholinomethyl)-1H-benzo[d]imidazol-2-yl)-1H-pyrazol-4-yl)-2-phenethoxypyrimidin-4-amine]	
501 to 1000	Clc1ccc(Oc2nccc(Nc3c[nH]nc3-c3nc4cc(CN5CCOCC5)ccc4[nH]3)n2)cc1 [Compound 50, 2-(4-Chlorophenoxy)-N-(3-(5-(morpholinomethyl)-1H-benzo[d]imidazol-2-yl)-1H-pyrazol-4-yl)pyrimidin-4-amine]	
	COc1ccccc1-c1nccc(Nc2c[nH]nc2-c2nc3ccccc3[nH]2)n1 [Compound 26, N-(3-(1H-Benzo[d]imidazol-2-yl)-1H-pyrazol-4-yl)-2-(2-methoxyphenyl)pyrimidin-4-amine]	D (6.0 < pIC50 ≤ 5.0 (1 µM < IC50 ≤ 10 µM))
	CC(C)c1cccc(-c2nccc(Nc3c[nH]nc3-c3nc4ccccc4[nH]3)n2)c1 [Compound 30, N-(3-(1H-Benzo[d]imidazol-2-yl)-1H-pyrazol-4-yl)-2-(3-isopropylphenyl)pyrimidin-4-amine]	D (6.0 < pIC50 ≤ 5.0 (1 µM < IC50 ≤ 10 µM))
> 10000	c1cc(-c2nccc(Nc3c[nH]nc3-c3nc4ccccc4[nH]3)n2)c2[nH]ccc2c1 [Compound 37, N-(3-(1H-Benzo[d]imidazol-2-yl)-1H-pyrazol-4-yl)-2-(1H-indol-7-yl)pyrimidin-4-amine]	
